Consider 20 compounds from patent US20260308157A1, “Pyrrolopyrazine Compounds, Preparation Thereof and Therapeutic Uses Thereof” (Sanofi, priority 2023, published 2026).

The IC50 is the midpoint of a concentration-inhibition curve.

Each structure is given as a SMILES string.

Test [1] deals with T1, activated catalytic domain of protein ERK5 (Homo sapiens, UniProt Q13164).
T1 construct: purchased CarnaBiosciences #04-146
Description: Cell-Free Assay of ERK5 Inhibition (Time-Resolved Forster Resonance Energy Transfer). It is filed as biochemical. As to conditions: ERK5 4 nM, 1 mM ATP, 1 μM biotinylated 4EBP1 peptide, 30 min at 37° C.; TR-FRET; mean where repeated. The method, then:
(§1) Two assays were performed to assess the ERK5 inhibitory activity of compounds of the Examples, a cell-based assay and a cell-free biochemical assay. Where repeat measurements were taken, the value reported is a mean average.
Cell-Free Assay of ERK5 Inhibition
An assay was performed to measure the capacity of each compound to inhibit ERK5 enzymatic activity. Compound potency was evaluated by Time-Resolved Forster Resonance Energy Transfer (FRET system). The activated catalytic domain of protein ERK5 (CarnaBiosciences #04-146) was mixed at 4 nM with varying concentrations of compound and incubated for 30 minutes at room temperature. A mixture of 1 mM ATP and 1 μM biotinylated synthetic peptide was added (Biosyntan GmbH). This synthetic peptide represents amino acids 30-52 of Eukaryotic translation initiation factor 4E-binding protein 1 (see, e.g., the sequence under accession No. NP_004086.1) biotinylated at the N-terminus. After 30 minutes at 37° C., the peptide phosphorylation by ERK5 was measured by addition of FRET reagents consisting of 12.5 µg/ml Streptavidin-XL665, 1 nM Anti-P-4EBP1 antibody and 300 ng/ml Anti-rabbit-K antibody. Following 90 minutes at room temperature fluorescent signals were read on the Pherastar FSX multimod detector from BMG Labtech (Exc° 340 nm, Em1 620 nm, Em2 665 nm). The IC50 values represent the concentration of compound which inhibits the measurable fluorescence signal by […] as compared to the DMSO only control.

The next test concerns the target T2, Cellular ERK5 Activity (Homo sapiens, UniProt Q13164).
T2 construct: MEF2-response-element luciferase reporter (pGreenFire1)
The test is described as follows: Inhibition of Cellular ERK5 Activity (cell-based assay, MEF2 luciferase reporter in SN12C cells). As to conditions: renal cancer cell line SN12C, doxycycline-induced MEK5DD, 0.3-10000 nM, mean where repeated. The method, then: as §1
Inhibition of Cellular ERK5 Activity
The renal cancer cell line SN12C was transduced by a lentivirus pGreenFire1 MEF2 EF1 Neo (ref TR030VA-N) from SBI using standard infection protocol. pGreenFire1 MEF2 EF1 Neo allows the expression of luciferase gene under the control of minimal promoter with MEF2 transcriptional response elements. Cells harboring the reporter construct were selected by geneticin treatment. The selected cells were then transposed by a piggyback based plasmid pCM4007 allowing the expression of constitutively activated MEK5DD under control of TREG3 promoter, a doxycycline regulated promoter. Transposed cells were selected by puromycin treatment. Upon doxycycline treatment (1 μg/ml) MEK5DD was expressed. MEK5DD activates ERK5 that phosphorylates MEF2C protein. Activated MEF2C protein can bind to its transcriptional response elements. Then the luciferase is expressed. In a 96-well plate (96F nuncleon ref137101 thermofisher), 50,000 cells were inoculated in 142.5 μl of RPMI medium containing 10% fetal calf serum, 1% glutamine, and 1 μg/ml doxycycline. After 24 hours, compounds were added in 7.5 μl culture medium (with 2% DMSO to give a final concentration of 0.1%) in order to obtain the desired concentration (0.3-10000 nM). The luciferase activity was measured using the Kit Bright Glo Luminescent Cell Assay Cat E2610 (Promega) according to the manufacturer's protocol. Luminescence was determined using 0.2 second reading/well using a Tecan SPARK. IC50 values were calculated using XLFIT5 for Microsoft Excel using method 205. The IC50 values represent the concentration of compound which inhibits the measurable luminescence signal by 50% as compared to DMSO-treated control cells.
Background: A reporter such as luciferase makes a cellular process visible.

T2 sequence (Q13164 whole entry): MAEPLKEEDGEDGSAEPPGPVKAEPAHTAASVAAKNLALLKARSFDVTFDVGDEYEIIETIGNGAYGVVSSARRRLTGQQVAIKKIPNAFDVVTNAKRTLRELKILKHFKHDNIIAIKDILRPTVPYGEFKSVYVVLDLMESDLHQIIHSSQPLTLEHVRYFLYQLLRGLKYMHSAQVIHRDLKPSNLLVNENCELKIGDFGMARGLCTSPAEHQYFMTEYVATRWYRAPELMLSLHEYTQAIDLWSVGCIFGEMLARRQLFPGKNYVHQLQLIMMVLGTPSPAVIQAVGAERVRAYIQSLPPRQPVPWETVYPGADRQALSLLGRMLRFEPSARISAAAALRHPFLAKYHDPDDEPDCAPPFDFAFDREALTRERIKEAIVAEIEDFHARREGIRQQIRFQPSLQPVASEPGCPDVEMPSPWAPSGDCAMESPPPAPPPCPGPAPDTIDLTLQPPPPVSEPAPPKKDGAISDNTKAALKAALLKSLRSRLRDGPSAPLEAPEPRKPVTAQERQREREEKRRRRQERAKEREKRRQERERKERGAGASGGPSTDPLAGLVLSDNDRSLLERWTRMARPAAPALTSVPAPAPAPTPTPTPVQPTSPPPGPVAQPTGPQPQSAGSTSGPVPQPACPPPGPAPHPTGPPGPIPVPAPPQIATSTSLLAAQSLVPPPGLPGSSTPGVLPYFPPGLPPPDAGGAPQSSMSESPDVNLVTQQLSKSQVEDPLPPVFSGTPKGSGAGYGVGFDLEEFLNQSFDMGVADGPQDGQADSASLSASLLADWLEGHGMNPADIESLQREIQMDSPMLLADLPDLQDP
T1 sequence (Q13164 55-347 limits assumed): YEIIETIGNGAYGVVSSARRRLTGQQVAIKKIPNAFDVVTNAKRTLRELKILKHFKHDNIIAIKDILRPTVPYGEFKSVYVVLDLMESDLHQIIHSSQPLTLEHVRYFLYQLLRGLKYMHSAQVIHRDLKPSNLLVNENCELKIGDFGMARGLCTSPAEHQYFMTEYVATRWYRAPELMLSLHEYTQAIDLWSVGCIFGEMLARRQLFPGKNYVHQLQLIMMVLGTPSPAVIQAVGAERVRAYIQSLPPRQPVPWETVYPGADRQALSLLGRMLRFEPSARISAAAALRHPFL

In the case of `O=C(c1ccc(OC(F)(F)F)cc1)N1CCC(c2c[nH]c3ncc(C4CCOC4)nc23)CC1` (racemic) [Example 5, (rac)-[4-(2-Tetrahydrofuran-3-yl-5H-pyrrolo[2,3-b]pyrazin-7-yl)-1-piperidyl]-[4-(trifluoromethoxy)phenyl]methanone], the IC50 in test [1] turned out to be 212 nM; against Cellular ERK5 Activity, 88 nM.

Compound `Nc1cc(OC(F)(F)F)ccc1C(=O)N1CCC(c2c[nH]c3ncc(C4CCOC4)nc23)CC1` (racemic) [Example 12, (rac)-[2-Amino-4-(trifluoromethoxy)phenyl]-[4-(2-tetrahydrofuran-3-yl-5H-pyrrolo[2,3-b]pyrazin-7-yl)-1-piperidyl]methanone] registered an IC50 in test [1] of 130 nM.

The compound `Nc1cc(OC(F)(F)F)ccc1C(=O)N1CCC(c2c[nH]c3ncc(C4CCOCC4)nc23)C1` (racemic) [Example 24, (rac)-[2-Amino-4-(trifluoromethoxy)phenyl]-[3-(2-tetrahydropyran-4-yl-5H-pyrrolo[2,3-b]pyrazin-7-yl)pyrrolidine-1-yl]methanone] gave an IC50 on Cellular ERK5 Activity of 261 nM.

`O=C(c1ccc(OC(F)(F)F)cc1)N1CCC(c2c[nH]c3ncc(C4CCOCC4)nc23)C1` (racemic) [Example 25, (rac)-[3-(2-Tetrahydropyran-4-yl-5H-pyrrolo[2,3-b]pyrazin-7-yl)pyrrolidin-1-yl]-[4-(trifluoromethoxy)phenyl]methanone]: half-maximal inhibition on Cellular ERK5 Activity (IC50) was put at 230 nM.

For the compound `O=C(c1ccc(OC(F)(F)F)cc1)N1CCC(c2c[nH]c3ncc(NC4CCOC4)nc23)CC1` (racemic) [Example 36, (rac)-[4-[2-[[tetrahydrofuran-3-yl]amino]-5H-pyrrolo[2,3-b]pyrazin-7-yl]-1-piperidyl]-[4-(trifluoromethoxy)phenyl]methanone], the IC50 in test [1] worked out at 291 nM; against Cellular ERK5 Activity, 124 nM.

As for `Nc1cc(OC(F)(F)F)ccc1C(=O)N1CCC(c2c[nH]c3ncc(NC4CCOC4)nc23)CC1` (racemic) [Example 37, (rac)-[2-amino-4-(trifluoromethoxy)phenyl]-[4-[2-[[tetrahydrofuran-3-yl]amino]-5H-pyrrolo[2,3-b]pyrazin-7-yl]-1-piperidyl]methanone], the IC50 in test [1] amounted to 94 nM; at Cellular ERK5 Activity, 60 nM.

Turning to `Nc1cc(S(F)(F)(F)(F)F)ccc1C(=O)N1CCC(c2c[nH]c3ncc(C4CCOCC4)nc23)C1` (racemic) [Example 43, (rac)-[2-amino-4-(pentafluoro-λ^6-sulfanyl)phenyl]-[3-(2-tetrahydropyran-4-yl-5H-pyrrolo[2,3-b]pyrazin-7-yl)pyrrolidin-1-yl]methanone], the IC50 stood at 9720 nM in test [1] and 357 nM against Cellular ERK5 Activity.

Turning to `Nc1cc(OC(F)(F)F)ccc1C(=O)N1CCC(c2c[nH]c3ncc(C4CCOC4)nc23)CC1` (single isomer, unassigned) [Example 13, [2-Amino-4-(trifluoromethoxy)phenyl]-[4-(2-tetrahydrofuran-3-yl-5H-pyrrolo[2,3-b]pyrazin-7-yl)-1-piperidyl]methanone], the IC50 came out at 93 nM in test [1] and 49 nM against Cellular ERK5 Activity.

For the compound `Nc1cc(OC(F)(F)F)ccc1C(=O)N1CCC(c2c[nH]c3ncc(C4CCOC4)nc23)CC1` (single isomer, unassigned) [Example 14, [2-Amino-4-(trifluoromethoxy)phenyl]-[4-(2-tetrahydrofuran-3-yl-5H-pyrrolo[2,3-b]pyrazin-7-yl)-1-piperidyl]methanone], the results for the IC50 (in test [1]; on Cellular ERK5 Activity) were 99 nM and 46 nM, respectively.

As for `O=C(c1ccc(OC(F)(F)F)cc1)N1CCC(c2c[nH]c3ncc(NC4CCOC4)nc23)CC1` (single isomer, unassigned; isomer 1) [Example 32, [4-[2-[[tetrahydrofuran-3-yl]amino]-5H-pyrrolo[2,3-b]pyrazin-7-yl]-1-piperidyl]-[4-(trifluoromethoxy)phenyl]methanone, Isomer 1], the results for the IC50 (in test [1]; against Cellular ERK5 Activity) were 361 nM and 79 nM, respectively.

As for `Nc1cc(OC(F)(F)F)ccc1C(=O)N1CCC(c2c[nH]c3ncc(NC4CCOC4)nc23)CC1` (single isomer, unassigned; isomer 1) [Example 34, [2-amino-4-(trifluoromethoxy)phenyl]-[4-[2-[[tetrahydrofuran-3-yl]amino]-5H-pyrrolo[2,3-b]pyrazin-7-yl]-1-piperidyl]methanone, Isomer 1], the IC50 in test [1] is 94 nM; on Cellular ERK5 Activity it was greater than 10000 nM.

With `O=C(c1ccc(OC(F)(F)F)cc1)N1CCC(c2c[nH]c3ncc(NC4CCOC4)nc23)CC1` (single isomer, unassigned; isomer 2) [Example 33, [4-[2-[[tetrahydrofuran-3-yl]amino]-5H-pyrrolo[2,3-b]pyrazin-7-yl]-1-piperidyl]-[4-(trifluoromethoxy)phenyl]methanone, Isomer 2], the figures for the half-inhibitory concentration (IC50) (in test [1]; against Cellular ERK5 Activity) were 335 nM and 126 nM, respectively.

With `Nc1cc(OC(F)(F)F)ccc1C(=O)N1CCC(c2c[nH]c3ncc(NC4CCOC4)nc23)CC1` (single isomer, unassigned; isomer 2) [Example 35, [2-amino-4-(trifluoromethoxy)phenyl]-[4-[2-[[tetrahydrofuran-3-yl]amino]-5H-pyrrolo[2,3-b]pyrazin-7-yl]-1-piperidyl]methanone, Isomer 2], the IC50 was 131 nM in test [1] and 246 nM at Cellular ERK5 Activity.

As to `CN1CCC(c2cnc3[nH]cc(C4CCN(C(=O)c5ccc(OC(F)(F)F)cc5N)CC4)c3n2)CC1` [Example 1, [2-Amino-4-(trifluoromethoxy)phenyl]-[4-[2-(1-methyl-4-piperidyl)-5H-pyrrolo[2,3-b]pyrazin-7-yl]-1-piperidyl]methanone], the IC50 in test [1] came out at 17 nM; at Cellular ERK5 Activity, 20 nM.

In the case of `Nc1cc(OC(F)(F)F)ccc1C(=O)N1CCC(c2c[nH]c3ncc(C4CCOCC4)nc23)CC1` [Example 2, [2-Amino-4-(trifluoromethoxy)phenyl]-[4-(2-tetrahydropyran-4-yl-5H-pyrrolo[2,3-b]pyrazin-7-yl)-1-piperidyl]methanone], the IC50 in test [1] turned out to be 37 nM; against Cellular ERK5 Activity it was 15 nM.

For `O=C(c1ccc(OC(F)(F)F)cc1)N1CCC(c2c[nH]c3ncc(C4CCOCC4)nc23)CC1` [Example 3, [4-(2-Tetrahydropyran-4-yl-5H-pyrrolo[2,3-b]pyrazin-7-yl)-1-piperidyl]-[4-(trifluoromethoxy)phenyl]methanone], the IC50 in test [1] is 172 nM; against Cellular ERK5 Activity, 41 nM.

In the case of `CN1CCC(c2cnc3[nH]cc(C4CCN(C(=O)c5ccc(OC(F)(F)F)cc5)CC4)c3n2)CC1` [Example 4, [4-[2-(1-Methyl-4-piperidyl)-5H-pyrrolo[2,3-b]pyrazin-7-yl]-1-piperidyl]-[4-(trifluoromethoxy)phenyl]methanone], the IC50 was found to be 66 nM in test [1] and 60 nM against Cellular ERK5 Activity.

As to `COCCCc1cnc2[nH]cc(C3CCN(C(=O)c4ccc(OC(F)(F)F)cc4)CC3)c2n1` [Example 6, [4-[2-(3-Methoxypropyl)-5H-pyrrolo[2,3-b]pyrazin-7-yl]-1-piperidyl]-[4-(trifluoromethoxy)phenyl]methanone], the IC50 worked out at 403 nM in test [1] and 118 nM on Cellular ERK5 Activity.

Consider `COCCCc1cnc2[nH]cc(C3CCN(C(=O)c4ccc(OC(F)(F)F)cc4N)CC3)c2n1` [Example 7, [2-Amino-4-(trifluoromethoxy)phenyl]-[4-[2-(3-methoxypropyl)-5H-pyrrolo[2,3-b]pyrazin-7-yl]-1-piperidyl]methanone], for which the IC50 was determined as 169 nM in test [1] and 56 nM at Cellular ERK5 Activity.

Regarding `Nc1cc(OC(F)(F)F)ccc1C(=O)N1CCC(c2c[nH]c3ncc([C@H]4CC[C@H](O)CC4)nc23)CC1` [Example 30, trans-[2-amino-4-(trifluoromethoxy)phenyl]-[4-[2-(4-hydroxycyclohexyl)-5H-pyrrolo[2,3-b]pyrazin-7-yl]-1-piperidyl]methanone], in test [1], the IC50 was determined as 39 nM.
